The values below come from patent publication US20120077786A1, “METHODS AND COMPOSITIONS FOR DISEASE TREATMENT USING INHALATION” (priority 2010, published 2012).

Data set [1] has as its system cell line cultured from patients with corticosteroid resistant asthma. The note with it: after addition of vitamin D; promotion of regulatory T cells; cited from earlier work.
Data set [2] concerns Airway smooth muscle. Particulars: cited from earlier work.
The subject of data set [3] is asthmatic adults. The note with it: cited from earlier work.
The nature of data set [4]: Aerosol performance of dry powder inhaler formulation, next generation Impactor. It counts as physicochemical. Particulars: inhaler operated at 15 L/min. As to the method: Inhaled corticosteroids (ICS) mometasone furoate or fluticasone furoate are prepared with volume median particle size of less than 5 microns. Calcitriol (1, 25-Dihydroxycholecalciferol) is also prepared in crystalline form and subsequently micronized to a volume median particle size of less than 5 microns. The ICS's are incorporated at appropriately 30-50% of the commercial ICS dose when administered via a passive dry powder inhaler, due to the efficiency of the invention delivered by a dry powder inhaler (DPI) available from MicroDose Therapeutx, Inc. One preferred embodiment utilizes an ICS dosed once daily, i.e. mometasone furoate or fluticasone furoate, to coincide with a once daily dose of the vitamin D receptor agonist. This combination product is designed to reverse corticoidsteroid resistance (CR) by adding the protective anti-inflammatory effects of calcitriol with the local anti-inflamatory effects of these ICS's. The inhaler is operated at 15 L/min and for both medicaments, the aerosol performance with a fine particle fraction (% of particles exiting the inhaler that are less than 5.8 microns) is […] with at least 10% of particles in the less than 2.1 micron size range when tested with a next generation Impactor.
Calcitriol is a synthetic vitamin D analog and has been used as a pharmaceutical as well as a nutraceutical. […]

For data set [5], the system named is patients with COPD. Particulars: extrafine, 1.1 microns in diameter, HFA pMDI; cited from earlier work.
Data set [6] has as its system adult rats with preexisting elastase-induced emphysema. The note with it: cited from earlier work.
The test system of data set [7] is adults with hereditary emphysema. Particulars: cited from earlier work.
Data set [8] concerns mice exposed to cigarette smoke. Particulars: cited from earlier work.

Take vitamin D: the steroid sensitivity result in data set [1] is on record as “increased steroid sensitivity”. In addition, in data set [2], the “airway smooth muscle proliferation” value is reported as “slow”. Further, the “mean increase in FEV1 for every 1 ng/mL increase in systemic vitamin D” value in data set [3] is listed as 22.7 mL.

As to `C=C1/C(=C\C=C2/CCC[C@]3(C)[C@@H]([C@H](C)CCCC(C)(C)O)CC[C@@H]23)C[C@@H](O)C[C@@H]1O` [calcitriol, 1, 25-Dihydroxycholecalciferol], the “particles in the less than 2.1 micron size range” value in data set [4] was “at least 10%”.

For `CCC(=O)OCC(=O)[C@@]1(OC(=O)CC)[C@@H](C)C[C@H]2[C@@H]3CCC4=CC(=O)C=C[C@]4(C)[C@@]3(Cl)[C@@H](O)C[C@@]21C` [beclomethasone dipropionate], in data set [5], the air trapping entry is reported as “significant reduction in air trapping”.

For the compound `CC1=C(/C=C/C(C)=C/C=C/C(C)=C/C(=O)O)C(C)(C)CCC1` [ATRA, All Trans Retinoic Acid], in data set [6], the alveolus formation entry is “induces alveolus formation”. For the same compound, the trial outcome in data set [7] is “not been successful”. For the same compound, in data set [8] (mice exposed to cigarette smoke), the “formation of pulmonary emphysema” value is reported as “diminishes the formation of pulmonary emphysema”. The “distance between alveolar walls” value in data set [8] (mice with emphysema produced by cigarette smoke) is reported as “decreases the distance between alveolar walls”.
